Assay results as given in patent US10945612B2, “Assessing endothelial function using a blood pressure cuff” (The Regents of the University of California, priority 2014, dated 2021).
Entries after “also recorded” stand apart in the source; their conditions may differ.

Columns and labels:
NO synthase = assay: Cuff single pulse waveforms after endothelial stimulation with NO synthase blocked by L-NAME; assay type: in vivo, human; details: cuff inflated to 70 mm Hg; NO synthase blocked via L-NAME
Text: Both the amplitude and slope of the rising edge of the pulse increase markedly after endothelial stimulation.
In an artery with intact endothelial function, both pulse height (maximal cross-sectional arterial area) and compliance (maximum slope of the rising edge) increase markedly over baseline. […] FIG. 4 illustrates how a five minute cuff occlusion and the ensuring reactive hyperemia lead to major increases in area change per pulse and the maximum derivative of the area per pulse. Both metrics return to baseline levels after 20 minutes. FIG. 5 confirms the repeatability of the protocol by illustrating the effects of a series of two cuff occlusion periods. We see from FIG. 6 that only a small slow drift in the measured quantities occurs when no reactive hyperemic stimulus is applied.

brachial artery = assay: Cuff-based measurement of vasodilation (pulse amplitude relative to baseline) after sublingual nitroglycerin; assay type: in vivo, human
Description: Three individuals in the age-range of 28-38 were examined. All subjects had Framingham risk scores of 1% or less, and had no history of cardiovascular disease. Each individual was assessed at least three times before and after RH induced by five minutes of suprasystolic cuff occlusion. At least one additional measurement was made using the same protocol, except without cuff inflation. Sensitivity to a 0.4 mg dose of sublingual NG was assessed three times in two individuals.
Sensitivity to a 0.4 mg dose of sublingual NG was assessed three times in two individuals. In the analysis that follows, all of the datasets are pooled by stimulus. This addresses the question: Can the method measure changes in arterial tone due to vasorelaxatory stimuli and with what sensitivity?
A single quantity relating to the recorded pressure data, the pulse amplitude, was studied and it was posited that this is proportional to the arterial area. During the post stimulus interval, pressure data from the cuff were recorded approximately every 80 seconds, for a period of 30 seconds. During each recording interval, the cuff was inflated to 70 mm Hg, which was always below the measured diastolic pressure of the subject. To quantify the observed response, the mean of the pulse quantity (in this case, amplitude) during the response interval was divided by the mean value of the same quantity during the baseline interval. FIG. 10 illustrates the results.
v) The stimulus is applied. This is either 1-5 min of cuff occlusion to suprasystolic pressure Ps (for studies of endothelial function) or a dose of sublingual NG (for studies of endothelium-independent vasodilation).
(vi) After Tp=45 s have elapsed following cuff release or drug administration, a series of up to Nr=10 repeat measurement intervals ensue. In each interval, the cuff is inflated to Pm for Tm seconds, after which it is deflated for Tw seconds. This large number of repeat measurements (Nr)) is required only when one wishes to record the return of the vessel toward baseline.
[formula] and reported, e.g., to the user. […]

smooth muscle = details: 400 μg sublingual dose; Feldman et al. (1979), Adams et al. (1998); cited from earlier work

For `COC(=O)[C@@H](N)CCCNC(=N)N[N+](=O)[O-]` [L-NAME], the “compliance (maximum slope of the rising edge) increase over baseline after endothelial stimulation” value (NO synthase) was “greatly attenuates this response; also recorded: greatly attenuated” and the “pulse height (maximal cross-sectional arterial area) increase over baseline after endothelial stimulation” value (NO synthase) was “greatly attenuates this response; also recorded: greatly attenuated”.

For `O=[N+]([O-])OCC(CO[N+](=O)[O-])O[N+](=O)[O-]` [NG, nitroglycerin], the cDmax % (brachial artery; 400 μg sublingual NG, maximal vasodilation by the cuff-based method, relative to baseline) was 70%, the “Mean ± SEM of maximum response over all data sets (dilation response)” value (brachial artery; 400 μg sublingual NG, ratio to baseline, pooled data sets) was 1.70 ± 0.036 and the “Mean ± SEM of maximum Response over all data sets (amplitude response)” value (brachial artery; 0.4 mg sublingual NG, mean pulse amplitude in response interval divided by baseline, cuff at 70 mm Hg, pooled data sets) was 1.70 ± 0.036. For the same compound, the smooth muscle dilation (smooth muscle) was “maximal smooth muscle dilation”.
